Test results from patent US6365549B2, “Methods of blocking an ethylene response in plants using cyclopropene derivatives” (North Carolina State University, priority 1999, dated 2002).

Assays:
Format in all cases: in vivo
[1] = test system: Patio variety tomato seedlings; experiment: Tomato epinasty test, volatile gas treatment; settings: ethylene 10 ppm v/v, scale of 0 to 10, 10 complete protection, 0 no protection
Experimental: The test procedure is designed to determine the ability of an compound according to the present invention to block the epinastic growth response induced by ethylene in tomato plants when the compound is administered either as a volatile gas or as a component of a spray solution. Treatment chambers are of an appropriate size for the test plants and are airtight. Each is fitted with a reusable septum to be used for injection of ethylene. Test plants are Patio variety tomato seedlings planted two plants per three inch square plastic pot. Volatile gas treatment entails placing two pots of Patio var. tomatoes into a polystyrene 4.8 L volume treatment chamber along with one-half (upper or lower section) of a 50×9 mm plastic Petri dish containing a Gelman filter pad. The appropriate amount of experimental compound, dissolved in 1.0 ml acetone, is pipetted onto the filter pad and the chamber immediately sealed. Four hours later ethylene gas equal to 10 ppm v/v final concentration is injected into the sealed chamber. Sixteen hours later the chambers are opened in an exhaust hood, allowed to air and the plants scored visually for the degree of protection against ethylene-induced epinasty conferred by the experimental compound when compared to ethylene treated and untreated controls on a scale of 0 to 10. A rating of 10 means complete protection. A rating of 0 means no protection from the effects of ethylene.

banana [2] = experiment: Minimum concentration protecting bananas from 333 μl/l ethylene (short-chain cyclopropenes injected as gas); settings: 24 hours exposure to compound as gas in 3-liter jar, then 333 μl/l ethylene 12-15 hours, observed for ripening
Experimental: To obtain the minimum concentration that protected bananas from 333 μl/l of ethylene, compounds described in U.S. Pat. No. 5,518,988 to Sisler et al. were applied to bananas according to the methods setforth herein. A known amount of an active compound was injected as a gas into a 3-liter jar containing a banana. The jar was sealed and the banana was removed after 24 hours. At the end of exposure, the banana was treated with 333 pill of ethylene in a 3-liter jar for 12-15 hours. It was then observed for ripening. The minimum concentration is the minimum concentration that protected the banana from 333 μl/l of ethylene. Ten microliters/liter of ethylene is usually considered to be a saturating amount.

banana [3] = experiment: Time of protection (insensitivity to ethylene) of bananas, short-chain cyclopropenes; settings: saturating amount (at least 10 times minimum) for 24 hours, daily challenge with 333 μl/l ethylene 12-15 hours
Experimental: To obtain the time of protection, bananas were exposed to a saturating amount of the compound for 24 hours (this was done as above and at least 10 times the minimum protection amount was used). After exposure, bananas were removed from the jars and each day individual bananas were exposed to 333 pill of ethylene for 12-15 hours. The day the bananas responded to ethylene was recorded as the protection time.

Molecule | Protection against ethylene-induced epinasty, rating ([1]; Gas 10 ppm) | Protection against ethylene-induced epinasty, rating ([1]; Gas 1000 ppm) | further results
CC(C)N.O=C(O)CCCCCCC1=CC1 [Compound 8, 7-Cycloprop-1-enyl-heptanoic Acid Isopropylamine Salt] | 0 | – | Protection against ethylene-induced epinasty, rating ([1]; Gas 500 ppm): 8
cyclopropene [cyclopropene (CP)] | – | – | Minimum Concentration (banana [2]): 0.7 nl/l; Time of Insensitivity (banana [3]): 12 days
CCCCCCCCCCCCCC1=CC1 [Compound 29] | 3.5 | 10 | –
CCN(CC)CCCCCCCC1=CC1 [Compound 11, 1-(7-N,N-Diethylaminoheptyl)-cyclopropene] | 3 | 10 | –
CCCCCCCCCCCC1=CC1 [Compound 27] | 10 | – | –
CCN(CC)C(=O)CCCCCCC1=CC1 [Compound 48, 7-Cycloprop-1-enyl-heptanoic Acid Diethylamide] | 0 | 7 | –
CCCCCCCCC1C=C1 [Compound 2, 3-Octylcyclopropene] | 0 | 10 | –
CCCCCC(C)CC1=CC1 (stereo not shown) [Compound 32] | 9.5 | – | –
C=CCCCCCCC1=CC1 [Compound 19, 1-(Oct-7-enyl)-cyclopropene] | 10 | – | –
CCCCCC1=CC1 [Compound 31] | 10 | – | –
CCCCCCCC1=CC1 [Compound 26] | 10 | – | –
CCCCC(CC)CCC1=CC1 (stereo not shown) [Compound 28] | 9 | – | –
CON=C(C)CCCCCCC1=CC1 (single isomer, unassigned) [Compound 47, 8-Cycloprop-1-enyl-octan-2-one O-methyl Oxime] | 9.5 | – | –
CCCCCCOCC1=CC1 [Compound 14, 1-Hexyloxymethyl-cyclopropene] | 10 | – | –
CCCCCCCCCCC1=CC1 [Compound 25] | 9 | – | –
CCCCCC1(CCCCC)C=C1 [Compound 16, 3,3-Dipentyl-cyclopropene] | 0 | 10 | –
COCCCCCCCC1=CC1 [Compound 3, 1-(7-Methoxyheptyl)-cyclopropene] | 9.5 | – | –
CCCCC1=CC1 [1-butylcyclopropene (1-BCP), 1-butylcyclopropene] | – | – | Minimum Concentration (banana [2]): 3 nl/l; Time of Insensitivity (banana [3]): 12 days
CC(C)CCCCCC1=CC1 [Compound 34] | 10 | – | –
CCCCCC1=C(CCCCC)C1 [Compound 45] | 0 | 10 | –
CCCCCC#CCCCCC1=CC1 [Compound 4, 1-(Undec-5-ynl)-cyclopropene] | 10 | – | –
CC(CCC1=CC1)CC(C)(C)C (stereo not shown) [Compound 35] | 10 | – | –
Hex-5-yne 2-octylcycloprop-2-ene-1-carboxylate [Compound 22] | 0 | – | Protection against ethylene-induced epinasty, rating ([1]; Gas 750 ppm): 9
1-ethylcyclopropene [1-ethylcyclopropene (1-ECP)] | – | – | Minimum Concentration (banana [2]): 4 nl/l; Time of Insensitivity (banana [3]): 12 days
CCCCCCCCCC1=CC1 [Compound 24] | 9.5 | – | –

Molecule | Protection against ethylene-induced epinasty, rating ([1]; Gas 10 ppm) | Protection against ethylene-induced epinasty, rating ([1]; Gas 1000 ppm) | further results
CC(=O)O.CCN(CC)CCCCCCCC1=CC1 [Compound 12, 1-(7-N,N,-Diethylammoniumheptyl)-cyclopropene Acetate] | 2 | 10 | –
CC(C)(O)CCC1=CC1 [Compound 20, 4-(1-Cyclopropenyl)-2-methylbutan-2-ol] | 0 | 8 | –
CCCCCCCCCCCCCCC1=CC1 [Compound 42] | 2 | 10 | –
1-Pentyloxyethyl-cyclopropene [Compound 15] | 10 | – | –
CCC=CCC1=C(CCCCC)C1 [Compound 17, 1-Pent-2-enyl-2-pentyl-cyclopropene] | 0 | 10 | –
CC[N+](C)(CC)CCCCCCCC1=CC1.[I-] [Compound 13, 1-(7-N,N,N-Diethylmethylammoniumheptyl)-cyclopropene Iodide] | 6 | – | –
CCOC(=O)CCCCCCC1=CC1 [Compound 9, 7-Cycloprop-1-enyl-heptanoic Acid Ethyl Ester] | 4 | – | –
CCC(=O)OCCC1=CC1 [Compound 33] | 0 | 10 | –
CCCCN(CCCC)CC1=CC1 [Compound 41] | 3 | 10 | –
CC(=O)CCCCCCC1=CC1 [Compound 46, 8-Cycloprop-1-enyl-octan-2-one] | 3 | 9 | –
FC(F)(F)CCCCC1=CC1 [Compound 37] | 10 | – | –
CC(=O)OCCCCCCCC1=CC1 [Compound 6, 1-(7-Acetoxyheptyl)-cyclopropene] | 0 | 10 | –
CCCCCCC1=CC1CCCCCC (stereo not shown) [Compound 44] | 0 | 10 | –
CCCCCCCCCCCCC1=CC1 [Compound 40] | 4 | 10 | –
CCC=CCC1=CC1(CCCCC)CCCCC [Compound 18, 1-Pent-2-enyl-3,3-dipentyl-cyclopropene] | 0 | 10 | –
O=C(O)CCCCCCC1=CC1 [Compound 7, 7-Cycloprop-1-enyl-heptanoic Acid] | 3 | 8 | –
CCCC1=CC1 [1-propylcyclopropene (1-PCP), 1-propylcyclopropene] | – | – | Minimum Concentration (banana [2]): 6 nl/l; Time of Insensitivity (banana [3]): 12 days
OCCCCCCCC1=CC1 [Compound 5, 1-(7-Hydroxyheptyl)-cyclopropene] | 0 | 10 | –
1-methylcyclopropene [1-methylcyclopropene (1-MCP)] | – | – | Minimum Concentration (banana [2]): 0.7 nl/l; Time of Insensitivity (banana [3]): 12 days
CCCCCCCCC1=C(CCCCCCCC(=O)OC)C1 [Compound 21, Methyl Sterculate] | 5 | 9 | –
CCCCCCCCCCCCCCCC1=CC1 [Compound 38] | 4.5 | 10 | –
N#CCCCCCCCC1=CC1 [Compound 10, 1-(7-Cyanoheptyl)-cyclopropene] | 2 | 10 | –
COCCOCCOCC1=CC1 [Compound 30] | 3 | 10 | –
CC(C)(C)CCC1=CC1 [Compound 43] | 10 | – | –
